Where two headings read alike, the source gives them in different places.
Experiments:
[1] = system: patients having Alzheimer presenile dementia; settings: cited from earlier work
rats = experiment: Survival of rats after arecoline administration by different routes; format: in vivo
Protocol: (§1) The blood samples were collected into heparinized test tubes. […] Plasma was separated immediately and stored frozen.
Plasma arecoline concentrations were determined after nasal and i.m. administration of the compound. After intranasal administration, arecoline was absorbed very rapidly (tmax= 3 +/- 1.6 min), faster than after i.m. administration (tmax=13.3 +/- 6.2 min). […] It is not known why absorption after i.m. was slower. […] Bolus i.v. studies were also performed, but the rats died. […]

[2] = Pharmacokinetics of arecoline in rats after intranasal and intramuscular administration; format: in vivo, Male Lewis rats; settings: for Tmax / half-life / AUC / Cmax: male, Lewis, rat, plasma; for AUC / Cmax: n=3 rats
Protocol: as §1
The analytical method of arecoline in plasma was performed by gas-chromatography-mass spectrometry (GC-MS) after solvent extraction using a method similar to that described in Beil, et al., Drug Develop Res, 9, 203-212 (1986). Nicotine was used as an internal standard. In this method, 50µl of nicotine solution in chloroform (1.5 µg/ml and 50 µl of 10% triethylamine in chloroform were added to 0.5 ml cold plasma in a 5 ml test tube with a screw cap. The tubes were vortexed for 1 minute and centrifuged for 10-15 minutes. The organic layer was then removed, placed in a micro vial and sealed with perfluoroethylene tape such as Teflon®, until analysis.
GC-MS analysis was performed using an HP-1 column, (crosslinked methyl silicon, 12 m x […] x 0.33 µm film thickness). Two µl aliquots were injected onto the column in a splitless mode. Helium was used as a carrier gas. Detection was accomplished using a gas chromatograph electron impact mass selective detector set at m/z=155 and 162. The limit of arecoline detection was 15 ng/ml.

[3] = cited from earlier work
[4] = In situ-in vivo nasal study: dosing in one nostril and washing out from the other; design: species or system rats; settings: after 15 minutes of dosing in one nostril
normal human subjects = settings: cited from earlier work
[5] = Pharmacokinetics of physostigmine in rats after intravenous and intranasal administration
Protocol: Male Lewis rats, each weighing approximately 300 grams were anesthesized with pentobarbital (50 mg/kg i.p.). The jugular vein was cannulated and attached to a syringe through a three way stopcock for blood collections. For nasal administration of physostigmine and arecoline, an incision was made in the neck of the animals and the trachea was cannulated with a polyethylene (PE) tube. A closed tube was inserted through the esophagus to the posterior part of the nasal cavity. The nasopalatine passage was closed with an adhesive agent to prevent drainage of the drug from the nasal cavity to the mouth. An aqueous solution of physostigmine hemi-sulfate (obtained from Sigma Chemical, St. Louis, Mo.) dose equivalent to 200 µg/kg of physostigmine base in a volume of 150 µl/kg was administered to the nasal cavity by means of a Hamilton syringe with PE tubing attached to the end. For arecoline hydrobromide (obtained from Sigma Chemical, St. Louis, MO.), an aqueous solution with a dose of 2 mg/kg was administered in a volume of 150 µl/kg. Blood samples (1 ml) were withdrawn through the jugular cannula and replaced with equal volume of fresh blood after each sampling as a function of time. For intravenous administration of physostigmine the same dose as nasal (200 µg/kg) in a volume of 1 ml/kg was injected through the femoral vein. For intramuscular arecoline hydrobromide, the dose was 1 mg/kg in a volume of 1 ml/kg injected into the biceps femoris. The blood samples were collected into heparinized test tubes. In the case of physostigmine the tubes also contained 50 µl of a 100 µg/ml neostigmine bromide (as a stabilizer for physostigmine). Plasma was separated immediately and stored frozen.
The analytical method for physostigmine in plasma was a modification of that described in Brodie, et al., J. Chromatogr. 415, 423-431 (1987). Plasma samples (0.5 ml) were pipetted into extraction tubes, and 0.2 ml of an aqueous solution of 3,3-bis(4- pyridylmethyl)-1-phenyl indolin-2-one as an internal standard (1.5 µg/ml), 2 ml of ethylacetate and 0.2 ml of a 3.5% sodium carbonate solution were added. The tubes were shaken mechanically for 0.5 minute and centrifuged for 5 minutes. The organic layer was then transferred to 12 X 75 mm tubes, evaporated to dryness under a steam of nitrogen, and the residue was reconstituted in 0.2 ml acetonitrile. After mechanical shaking (2 minutes), aliquots (125 µl) were analyzed by High Performance Liquid Chromatography (HPLC) using a dual detection system, where detection of physostigmine was by a fluorimetric detector and detection of the internal standard was by an ultraviolet (u.v.) detector.
Separation was achieved on a 25 cm x 4.6 mm reverse phase (Zorbax® C₈, Du Pont) column attached to a guard column with C₈ packing at ambient temperature The mobile phase contained 0.2 M ammonium acetate-acetonitrile (2:3), adjusted to pH 8.2-8.3 with triethylamine and was delivered at a flow rate of 1.5 ml/min. Detection of physostigmine was by fluorimetric detector (Spectroflow 980 Programmable Fluorescence Detector, Kratos) operated at excitation and emission wavelengths of 254 and 320 nm, respectively. Detection of the internal standard was by u.v. detector (Lambda-Max Model 481 LC Spectrophotometer, Waters instrument) set at 254 nm. […] The other components of the HPLC system were a Waters 590 Programmable HPLC pump, an autosampler (Waters WISP 710B) and a recording integrator (Hewlett-Packard Model 3393A).

[6] = im, 1 mg/kg, after i.m. administration
[7] = im, Intramuscular, 1 mg/kg Arecoline HBr
[8] = inhaled or intranasal, 2 mg/kg, after intranasal administration
[9] = inhaled or intranasal, Intranasal, 2 mg/kg Arecoline HBr
[10] = male, Lewis, rat, plasma, inhaled or intranasal, 200 ug/kg

## COC(=O)C1=CCCN(C)C1 [arecoline]
[1]; 2 mg doses
  picture recognition tests: trend toward improvement
[1]; intravenous administration of 4 mg
  picture recognition tests: improvement
rats; bolus i.v.
  death of rats: the rats died
rats; i.m. administration
  death of rats: None of the rats died
rats; intranasal administration
  death of rats: None of the rats died
[2]; im, 1 mg/kg, Intramuscular, 1 mg/kg Arecoline HBr, n=3 rats (Table 2)
  Tmax: 5.43 min
[2]; [6]
  Tmax: 13.3 min
  half-life: 5.4 ± 1.1 min
[2]; [7]
  AUC: 77.7 ng·h/mL
  Cmax: 249 ± 22 ng/mL
[2]; inhaled or intranasal, 2 mg/kg, Intranasal, 2 mg/kg Arecoline HBr, n=3 rats (Table 2)
  Tmax: 3 min
[2]; [8]
  Tmax: 3 min
  half-life: 2 ± 0.6 min
[2]; [9]
  AUC: 141 ng·h/mL
  Cmax: 1750 ± 523 ng/mL
[2]; ratio of AUC (nasal/intramuscular) X 100
  Bioavilability: 85%
[3]
  bioavailability upon oral administration: not bioavailable
[4]
  residual arecoline in the nose: no residual arecoline
Normal human subjects
  serial learning: significantly enhanced

## CNC(=O)Oc1ccc2c(c1)[C@]1(C)CCN(C)[C@@H]1N2C [physostigmine]
[1]; 0.25 mg and 0.75 mg doses
  picture recognition tests: trend toward improvement
[1]; intravenous administration of 0.375 mg
  picture recognition tests: improvement
[5]; Nasal, 200 µg/kg, n = 7 rats (Table 1)
  Tmax: 6.5 ± 1.7 min
[5]; [10]
  AUC: 38.9 ng·h/mL
  Cmax: 86 ± 5 ng/mL
  Tmax: 6.5 min
  half-life: 36 ± 16 min
[5]; male, Lewis, rat, plasma, iv, 200 ug/kg
  AUC: 40.2 ng·h/mL
[5]; male, Lewis, rat, plasma, iv, 200 µg/kg
  bioavailability: 97%
